According to patent publication US12065438B2, “Substituted tricyclic compounds as indoleamine 2,3-dioxygenase inhibitors” (Merck Sharp & Dohme LLC, priority 2019, dated 2024):

These compounds were tested against IDO1 (Homo sapiens, UniProt P14902) (assay: IDO1 Cellular Assay in HeLa Cells Stimulated with IFNγ). Conditions: HeLa cells stimulated with IFNγ 100 ng/mL, 300 uM L-tryptophan, about 48 hours, fluorescence readout; read-out: IDO1 HELA Cell Assay, IC50.
IDO1, sequence (P14902 whole entry): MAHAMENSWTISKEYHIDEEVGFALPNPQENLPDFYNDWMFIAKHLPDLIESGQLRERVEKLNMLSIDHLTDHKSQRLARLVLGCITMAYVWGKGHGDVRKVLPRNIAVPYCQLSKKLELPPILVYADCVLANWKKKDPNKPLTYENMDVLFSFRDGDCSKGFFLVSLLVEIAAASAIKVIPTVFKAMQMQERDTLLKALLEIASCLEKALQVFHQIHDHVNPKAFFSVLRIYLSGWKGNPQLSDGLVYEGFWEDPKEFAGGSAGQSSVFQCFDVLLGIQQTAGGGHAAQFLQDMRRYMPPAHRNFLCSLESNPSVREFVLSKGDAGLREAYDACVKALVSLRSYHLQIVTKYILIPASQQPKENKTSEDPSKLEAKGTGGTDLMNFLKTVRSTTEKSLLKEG
Format: cell-based
Parameters: endogenous in cells; host or cells: HeLa cells stimulated with IFNγ
Procedure: Biological Assays IDO1 Cellular Assay in HeLa Cells Stimulated with IFNγ HeLa cells were cultured in complete HeLa culture medium (90% EMEM, 10% heat-inactivated fetal bovine serum) and expanded to about 1×10^9 cells. The cells were then collected and frozen down at 1×10^7 cells/vial in 1 mL frozen medium (90% complete HeLa culture medium, 10% DMSO). Compounds to be tested were serially diluted in ten 3-fold steps in DMSO starting from 10 mM DMSO stocks in Echo low volume plate(s). Compound dilutions or DMSO alone were then dispensed from the dilution plate(s) into Greiner black 384-well assay plate(s) (catalog #781086, 50 nL/well) using an Echo 550 acoustic liquid handler (Labcyte). Frozen HeLa cells were thawed and transferred into HeLa assay medium (99% complete HeLa culture medium, 1% Pen/Strep) with 20 mL medium/vial of cells. The cells were spun down at 250 g in a table top centrifuge for 5 min and suspended in same volume of HeLa assay medium. The cells were then counted and adjusted to a density of 2×10^5 cells/mL in HeLa assay medium. Sterile L-tryptophan were added to the cells with final concentration of 300 uM L-tryptophan. A small aliquot (2 mL/plate) of HeLa cells were set aside and were not treated with IFNγ, to serve as the Max-E control. The rest of HeLa cells were added with sterile IFNγ (Cat #285-IF, R & D systems) with a final concentration of 100 ng/mL. HeLa cells with and without IFNγ were dispensed to the respective wells of 384-well assay plates containing the compounds. The plates were incubated for about 48 hours at a 37° C., 5% CO2 incubator. Afterwards, 12 μL of 0.5 M methyl isonipecotate in dimethyl sulfoxide were added into each well and the plates were sealed and incubated at 37° C. without CO2 overnight. The plates were centrifuged for 1 min at 200×g. The resulting fluorescence was measured in a Spectramax plate reader (Molecular Devices) with a 400 nm excitation filter and a 510 nm emission filter. The fluorescence intensity of each well was corrected for the background observed in wells with non-IFNγ-treated cells and was expressed as a fraction of the intensity observed in wells of IFNγ-treated cells and DMSO only. Potencies were calculated by […] least squares fit to the four parameter logistic IC50 equation.
Compound `Cc1nccc(N2C[C@H]3C[C@H]3c3nc([C@@]4(NC(=O)c5ccc(F)cc5)C[C@H]4C)ccc32)n1` [Example 43, 4-fluoro-N-((1R,2R)-2-methyl-1-((6aS,7aR)-5-(2-methyl-pyrimidin-4-yl)-6,6a,7,7a-tetra-hydro-5H-cyclopropa[c][1,5]-naphthyridin-2-yl)cyclopropyl)-benzamide] has an IC50 of 3.27 nM. Work on `Cc1nccc(N2CC3CC3c3nc(C4(NC(=O)c5ccc(F)cc5)CC4C)ccc32)n1` (racemic) [Example 47, 4-fluoro-N-(2-methyl-1-(5-(2-methylpyrimidin-4-yl)-6,6a, 7,7a-tetrahydro-5H-cyclopropa[c][1, 5]naphthyridin-2-yl)cyclopropyl)benzamide] yielded an IC50 of 52 nM. For `Cc1nccc(N2C[C@@H]3C[C@@H]3c3nc([C@@]4(NC(=O)c5ccc(F)cc5)C[C@@H]4C)ccc32)n1` [Example 40, 4-fluoro-N-((1R,2S)-2-methyl-1-((6aR,7aS)-5-(2-methyl-pyrimidin-4-yl)-6,6a,7,7a-tetra-hydro-5H-cyclopropa[c][1,5]-naphthyridin-2-yl)cyclopropyl)-benzamide], the IC50 was 2.83 nM. In the case of `Cc1nccc(N2CC3CC3c3nc(C(C)(C)NC(=O)c4ccc(F)cc4)ccc32)n1` (racemic) [Example 29, 4-fluoro-N-(2-(5-(2-methylpyrimidin-4-yl)-6,6a,7,7a-tetrahydro-5H-cyclopropa[c][1,5]naphthyridin-2-yl)propan-2-yl)benzamide], the IC50 is reported as 90 nM. Compound `CC(C)(C)OC(=O)N1CC2CC2c2nc(C3(NC(=O)c4ccc(F)cc4)CC3)ccc21` (stereo not shown) [Example 10, tert-butyl 2-(1-(4-fluorobenzamido)cyclopropyl)-6,6a,7,7a-tetrahydro-5H-cyclopropa[c][1,5]naphthyridine-5-carboxylate] has an IC50 of 96.7 nM. Work on `Cc1nccc(N2C[C@@H]3C[C@@H]3c3nc([C@@]4(NC(=O)c5ccc(F)cc5)C[C@H]4C)ccc32)n1` [Example 41, 4-fluoro-N-((1R,2R)-2-methyl-1-((6aR,7aS)-5-(2-methyl-pyrimidin-4-yl)-6,6a,7,7a-tetra-hydro-5H-cyclopropa[c][1,5]-naphthyridin-2-yl)cyclopropyl)-benzamide] yielded an IC50 of 2.36 nM. For `Cc1nccc(N2C[C@@H]3C[C@@H]3c3nc([C@]4(NC(=O)c5ccc(F)cc5)C[C@H]4C)ccc32)n1` [Example 39, 4-fluoro-N-((1S,2R)-2-methyl-1-((6aR,7aS)-5-(2-methyl-pyrimidin-4-yl)-6,6a,7,7a-tetra-hydro-5H-cyclopropa[c][1,5]-naphthyridin-2-yl)cyclopropyl)-benzamide], the IC50 was 10.5 nM. In the case of `CCC(NC(=O)c1ccc(F)cc1)c1ccc2c(n1)C1CC1CN2C(=O)OC1CC1` (single isomer, unassigned) [Example 36, cyclopropyl 2-(1-(4-fluorobenzamido)propyl)-6,6a,7,7a-tetrahydro-5H-cyclopropa[c][1,5]naphthyridine-5-carboxylate], the IC50 is reported as 211 nM. `COC(=O)c1nccc(N2CC3CC3c3nc(C4(NC(=O)c5ccc(F)cc5)CC4)ccc32)n1` (stereo not shown) [Example 17, methyl 4-(2-(1-(4-fluorobenzamido)cyclopropyl)-6,6a,7,7a-tetrahydro-5H-cyclopropa[c][1,5]naphthyridin-5-yl)pyrimidine-2-carboxylate] gave an IC50 of 9.02 nM. `Cc1nccc(N2c3ccc(C4(NC(=O)c5ccc(F)cc5)CC4)nc3C3CC2C3)n1` [Example 51, 4-fluoro-N-(1-(1-(2-methylpyrimidin-4-yl)-1,2,3,4-tetrahydro-2,4-methano-1,5-naphthyridin-6-yl)cyclopropyl)benzamide] showed an IC50 of 8.08 nM. Work on `Cc1nccc(N2C[C@@H]3C[C@@H]3c3cc(C4(NC(=O)c5ccc(F)cc5)CC4)ccc32)n1` (single isomer, unassigned) [Example 2] yielded an IC50 of 1.5 nM. Compound `Cc1nccc(N2c3ccc(C4(NC(=O)c5ccc(F)cc5)CC4)cc3C3CC32)n1` (single isomer, unassigned) [Example 9, 4-fluoro-N-(1-(2-(2-methylpyrimidin-4-yl)-1,1a,2,6b-tetrahydrocyclopropa[b]indol-5-yl)cyclopropyl)benzamide] has an IC50 of 8.21 nM. `Cc1nccc(N2c3ccc(C4(NC(=O)c5ccc(F)cc5)CC4)cc3CC3CCC32)n1` (stereo not shown) [Example 5, 4-fluoro-N-(1-(3-(2-methylpyrimidin-4-yl)-1,2,2a,3,8,8a-hexahydrocyclobuta[b]quinolin-6-yl)cyclopropyl)benzamide] was tested, and the IC50 was 4.71 nM. `O=C(NC1(c2ccc3c(n2)C2CC(C2)N3C(=O)OC2CC2)CC1)c1ccc(F)cc1` [Example 50, cyclopropyl 6-(1-(4-fluorobenzamido)cyclopropyl)-3,4-dihydro-2,4-methano-1,5-naphthyridine-1(2H)-carboxylate] showed an IC50 of 5.76 nM. For `CC(C)(C)OC(=O)N1C[C@@H]2C[C@@H]2c2nc(C3(NC(=O)c4ccc(F)cc4)CC3)ccc21` [Example 52, tert-butyl (6aR,7aS)-2-(1-(4-fluorobenzamido)cyclopropyl)-6,6a,7,7a-tetrahydro-5H-cyclo-propa[c][1,5]naphthyridine-5-carboxylate], the IC50 was 96.6 nM. In the case of “4-fluoro-N-(2-((6aS,7aR)-5-(2-methylpyrimidin-4-yl)-6,6a,7,7a-tetrahydro-5H-cyclopropa[c][1,5]naphthyridin-2-yl)propan-2-yl)benzamide [Example 31]”, the IC50 is reported as 80.6 nM. With `C[C@H](NC(=O)c1ccc(F)cc1)c1ccc2c(n1)[C@H]1C[C@H]1CN2C(=O)OC1CC1` [Example 25, cyclopropyl (6aR,7aS)-2-((S)-1-(4-fluorobenzamido)-ethyl)-6,6a,7,7a-tetrahydro-5H-cyclopropa[c][1,5]-naphthyridine-5-carboxylate] the IC50 was 15.4 nM. Compound `O=C(NC1(c2ccc3c(n2)[C@@H]2C[C@@H]2CN3C(=O)OC2CCOCC2)CC1)c1ccc(F)cc1` [Example 23, tetrahydro-2H-pyran-4-yl (6aS,7aR)-2-(1-(4-fluoro-benzamido)cyclopropyl)-6,6a,7,7a-tetrahydro-5H-cyclopropa[c][1,5]-naphthyridine-5-carboxylate] has an IC50 of 17 nM. `Cc1nccc(N2C[C@H]3C[C@H]3c3nc([C@]4(NC(=O)c5ccc(F)cc5)C[C@H]4C)ccc32)n1` [Example 44, 4-fluoro-N-((1S,2R)-2-methyl-1-((6aS,7aR)-5-(2-methyl-pyrimidin-4-yl)-6,6a,7,7a-tetra-hydro-5H-cyclopropa[c][1,5]-naphthyridin-2-yl)cyclopropyl)-benzamide] was tested, and the IC50 was 4.34 nM. Compound `CC(C)(NC(=O)c1ccc(F)cc1)c1ccc2c(n1)[C@H]1C[C@H]1CN2C(=O)OC1CC1` (single isomer, unassigned) [Example 34] has an IC50 of 221 nM. `Cc1nccc(N2c3ccc(C4(NC(=O)c5ccc(F)cc5)CC4)cc3C3CC32)n1` (single isomer, unassigned) [Example 8, 4-fluoro-N-(1-(2-(2-methylpyrimidin-4-yl)-1,1a,2,6b-tetrahydrocyclopropa[b]indol-5-yl)cyclopropyl)benzamide] was tested, and the IC50 was 2.91 nM. With `Cc1nccc(N2C[C@H]3C[C@H]3c3nc(C4(NC(=O)c5ccc(F)cc5)CC4)ccc32)n1` (stereo in doubt) [Example 13, 4-fluoro-N-(1-(5-(2-methylpyrimidin-4-yl)-6,6a,7,7a-tetrahydro-5H-cyclopropa[c][1,5]naphthyridin-2-yl)cyclopropyl)benzamide] the IC50 was 1.07 nM.
